Reference: patent US20230180754A1, “HETEROCYCLIC COMPOUNDS FOR THE CONTROL OF INVERTEBRATE PESTS” (priority 2020, published 2023)

How the values were obtained:
Format in all cases: in vivo
[1] = test system: green peach aphid (Myzus persicae); test: Green peach aphid (Myzus persicae), systemic artificial diet/membrane test; details: 72 h, aphid mortality after 3 days, read-out: mortality in comparison with untreated controls
Source text: For evaluating control of green peach aphid (Myzus persicae) through systemic means the test unit consisted of 96-well-microtiter plates containing liquid artificial diet under an artificial membrane.
The compounds were formulated using a solution containing 75% v/v water and 25% v/v DMSO. Different concentrations of formulated compounds were pipetted into the aphid diet, using a custom-built pipette, at two replications.
After application, 5-8 adult aphids were placed on the artificial membrane inside the microtiter plate wells. The aphids were then allowed to suck on the treated aphid diet and incubated at about 23 ±1° C. and about 50 ±5% relative humidity for 3 days. Aphid mortality and fecundity was then visually assessed.

[2] = test system: boll weevil (Anthonomus grandis); test: Boll weevil (Anthonomus grandis), microtiter plate insect diet test; details: 120 h, egg and larval mortality after 5 days, read-out: mortality in comparison with untreated controls
Method: (§1) For evaluating control of boll weevil (Anthonomus grandis) the test unit consisted of 96-well-microtiter plates containing an insect diet and 5-10 A. grandis eggs. The compounds were formulated using a solution containing 75% v/v water and 25% v/v DMSO. Different concentrations of formulated compounds were sprayed onto the insect diet at 5 μl, using a custom-built micro atomizer, at two replications.
After application, microtiter plates were incubated at about 25±1° C. and about 75±5% relative humidity for 5 days. Egg and larval mortality was then visually assessed.

[3] = test system: tobacco budworm (Heliothis virescens); test: Tobacco budworm (Heliothis virescens), microtiter plate insect diet test; details: 120 h, egg and larval mortality after 5 days, read-out: mortality in comparison with untreated controls
Method: as §1, with “of tobacco budworm (Heliothis virescens)” for “of boll weevil (Anthonomus grandis)”, “and 15-25 H. virescens” for “and 5-10 A. grandis”, “at 10” for “at 5”
After application, microtiter plates were incubated at about 28±1° C. and about 80±5% relative humidity for 5 days. Egg and larval mortality was then visually assessed.

[4] = test system: southern armyworm (Spodoptera eridania), 2nd instar larvae; test: Southern armyworm (Spodoptera eridania), 2nd instar larvae, sprayed lima bean plants; details: 96 h, 4 days after treatment, read-out: mortality in comparison with untreated controls
Source text: The active compounds were formulated by a Tecan liquid handler in 100% cyclohexanone as a 10′000 ppm solution supplied in tubes. The 10′000 ppm solution was serially diluted in 100% cyclohexanone to make interim solutions. These served as stock solutions for which final dilutions were made by the Tecan in 50% acetone:50% water (v/v) into 10 or 20m1 glass vials. A nonionic surfactant (Kinetic®) was included in the solution at a volume of 0.01% (v/v). The vials were then inserted into an automated electrostatic sprayer equipped with an atomizing nozzle for application to plants/insects. Lima bean plants (variety Sieva) were grown 2 plants to a pot and selected for treatment at the 1st true leaf stage. Test solutions were sprayed onto the foliage by an automated electrostatic plant sprayer equipped with an atomizing spray nozzle. The plants were dried in the sprayer fume hood and then removed from the sprayer. Each pot was placed into perforated plastic bags with a zip closure. Ten to 11 armyworm larvae were placed into the bag and the bags zipped closed. Test plants were maintained in a growth room at about 25° C. and about 20-40% relative humidity for 4 days, avoiding direct exposure to fluorescent light (14:10 light:dark photo-period) to prevent trapping of heat inside the bags. Mortality and reduced feeding were assessed 4 days after treatment, compared to untreated control plants.

[5] = test system: yellow fever mosquito (Aedes aegypti); test: whole plant or invertebrate; details: 48 h, larval mortality after 2 days, read-out: mortality in comparison with untreated controls
Method: For evaluating control of yellow fever mosquito (Aedes aegypti) the test unit consisted of 96-well-microtiter plates containing 200 μl of tap water per well and 5-15 freshly hatched A. aegypti larvae.
The active compounds were formulated using a solution containing 75% (v/v) water and 25% (v/v) DMSO. Different concentrations of formulated compounds or mixtures were sprayed onto the insect diet at 2.5 μl, using a custom-built micro atomizer, at two replications.
After application, microtiter plates were incubated at 28±1° C., 80±5% RH for 2 days. Larval mortality was then visually assessed.

[6] = test system: orchid thrips (Dichromothrips corbetti); test: Orchid thrips (Dichromothrips corbetti), floral-immersion technique; details: 72 hours after treatment, adult thrips, read-out: mortality in comparison with untreated controls
Method: Dichromothrips corbetti adults used for bioassay were obtained from a colony maintained continuously under laboratory conditions. For testing purposes, the test compound was diluted in a 1:1 mixture of acetone:water (vol:vol), plus Kinetic at a rate of 0.01% v/v.
Thrips potency of each compound was evaluated by using a floral-immersion technique. Each orchid petal was dipped into treatment solution and allowed to dry in Petri dishes. Treated petals were placed into individual re-sealable plastic along with about 20 adult thrips. All test arenas were held under dark condition and a temperature of about 28° C. for duration of the assay. The percent mortality was recorded 72 hours after treatment.

[7] = test system: diamond back moth (Plutella xylostella); test: Diamond back moth (Plutella xylostella), cabbage leaf disc dip test; details: foliar, 72 hours after treatment, 3rd instar larvae, read-out: mortality in comparison with untreated controls
Method: The active compound was dissolved at the desired concentration in a mixture of 1:1 (vol:vol) distilled water:acetone. Surfactant (Kinetic) was added at a rate of 0.01% (vol/vol). The test solution was prepared at the day of use. Cabbage leaf discs (60 mm in diameter) were dipped in test solution and air-dried. Treated leaves were placed in petri dishes lined with moistened filter paper and inoculated with ten 3rd instar larvae. Mortality was recorded 72 hours after treatment. Feeding damages were also recorded using a scale of 0-100%.

[8] = test system: rice green leafhopper (Nephotettix virescens); test: Rice green leafhopper (Nephotettix virescens), sprayed rice seedlings; details: after 72 hours, adults, read-out: mortality in comparison with untreated controls
Method: Four to five-week old rice seedlings with cut upper leaf portion were cleaned and washed 24 hours before spraying. The active compounds were formulated in 1:1 acetone:water (vol:vol), and 0.01% vol/vol surfactant (Kinetic) was added. Potted rice seedlings were sprayed with 5-6 ml test solution, air dried, covered with Mylar cages and inoculated with 10 adults. Treated rice plants were kept at about 28-29° C. and relative humidity of about 50-60%. Percent mortality was recorded after 72 hours.

CC(NC1=NS(=O)(=O)c2c(Cl)cc(Cl)cc21)c1ncnn1-c1ncccn1 (stereo not drawn) [I-9, 5,7-dichloro-1,1-dioxo-N-[1-(2-pyrimidin-2-yl-1,2,4-triazol-3-yl)ethyl]-1,2-benzothiazol-3-amine]
≥ 50%: mortality at 2500 ppm [1] | mortality at 2500 ppm [2]

CC(Nc1nsc2c(Cl)cc(Cl)cc12)c1ncnn1-c1ncccn1 (stereo not drawn) [I-5, 5,7-dichloro-N-[1-(2-pyrimidin-2-yl-1,2,4-triazol-3-yl)ethyl]-1,2-benzothiazol-3-amine]
≥ 50%: mortality at 2500 ppm [3] | mortality at 300 ppm [4] | mortality at 2500 ppm [1] | mortality at 2500 ppm [2] | mortality at 2500 ppm [5]

CC(Nc1nn(C)c2ccc(C(F)(F)F)cc12)c1ncnn1-c1ncccn1 (stereo not drawn) [I-4, 1-methyl-N-[1-(2-pyrimidin-2-yl-1,2,4-triazol-3-yl)ethyl]-5-(trifluoromethyl)indazol-3-amine]
≥ 50%: mortality at 2500 ppm [3] | mortality at 2500 ppm [2] | mortality at 2500 ppm [5]

CCC(Nc1noc2c(C(F)(F)F)cc(C(F)(F)F)cc12)c1ncnn1-c1ncccn1 (stereo not drawn) [I-28, N-[1-(2-pyrimidin-2-yl-1,2,4-triazol-3-yl)propyl]-5,7-bis(trifluoromethyl)-1,2-benzoxazol-3-amine]
≥ 50%: mortality at 2500 ppm [3] | mortality at 300 ppm [6] | mortality at 300 ppm [7] | mortality at 2500 ppm [1] | mortality at 2500 ppm [2]

CC(Nc1noc2c(C(F)(F)F)cc(C(F)(F)F)cc12)c1ncnn1-c1ncccn1 (stereo not drawn) [I-1, N-[1-(2-pyrimidin-2-yl-1,2,4-triazol-3-yl)ethyl]-5,7-bis(trifluoromethyl)-1,2-benzoxazol-3-amine]
≥ 50%: mortality at 2500 ppm [3] | mortality at 2500 ppm [1] | mortality at 2500 ppm [2] | mortality at 2500 ppm [5]

CC(Nc1c(C(F)(F)F)c(C(F)(F)C(F)(F)F)nn1C)c1ncnn1-c1ncccn1 (stereo not drawn) [I-7, 2-methyl-5-(1,1,2,2,2-pentafluoroethyl)-N-[1-(2-pyrimidin-2-yl-1,2,4-triazol-3-yl)ethyl]-4-(trifluoromethyl)pyrazol-3-amine]
≥ 50%: mortality at 2500 ppm [3] | mortality at 300 ppm [6] | mortality at 300 ppm [7]

CC(c1ncnn1-c1ncccn1)N(CC1CC1)c1nnc2c(Cl)cc(C(F)(F)F)cn12 (stereo not drawn) [I-6, 8-chloro-N-(cyclopropylmethyl)-N-[1-(2-pyrimidin-2-yl-1,2,4-triazol-3-yl)ethyl]-6-(trifluoromethyl)-[1,2,4]triazolo[4,3-a]pyridin-3-amine]
≥ 50%: mortality at 2500 ppm [1]

FC(F)(F)c1cc(C(F)(F)F)c2onc(NCc3ncnn3-c3ncccn3)c2c1 [I-2, N-[(2-pyrimidin-2-yl-1,2,4-triazol-3-yl)methyl]-5,7-bis(trifluoromethyl)-1,2-benzoxazol-3-amine]
≥ 50%: mortality at 300 ppm [6] | mortality at 300 ppm [7] | mortality at 2500 ppm [2] | mortality at 2500 ppm [5]

CC(Nc1n[s+]([O-])c2c(Cl)cc(Cl)cc12)c1ncnn1-c1ncccn1 (stereo not drawn) [I-8, 5,7-dichloro-1-oxo-N-[1-(2-pyrimidin-2-yl-1,2,4-triazol-3-yl)ethyl]-1,2-benzothiazol-3-amine]
≥ 50%: mortality at 300 ppm [6] | mortality at 300 ppm [8] | mortality at 2500 ppm [1] | mortality at 2500 ppm [2]

CC(Nc1noc2ncc(C(F)(F)F)cc12)c1ncnn1-c1ncccn1 (stereo not drawn) [I-3, N-[1-(2-pyrimidin-2-yl-1,2,4-triazol-3-yl)ethyl]-5-(trifluoromethyl)isoxazolo[5,4-b]pyridin-3-amine]
≥ 50%: mortality at 2500 ppm [1] | mortality at 2500 ppm [2]
